Measurements taken from patent US7232570B2, “ERAAP modulators regulate immune responses” (Regents of the University of California, priority 2002, dated 2007).
One block for each compound: values may come before it.

How the values were obtained:
human source ERAAP = human source ERAAP (Homo sapiens, UniProt Q9NZ08); assay: ERAAP modulation/selectivity screen against a panel of other aminopeptidases; format: biochemical; conditions: preferential inhibition of ERAAP compared with a panel of other aminopeptidases
Text: The targeted ERAAP is a well-known, naturally-occurring aminopeptidase, which has been biochemically characterized and cloned in a wide variety of animal species, including mice, rats and humans. […] Note that the same enzyme has been called “A-LAP” (adipocyte-derived leucine aminopeptidase) by others (e.g. Hattori et al., supra).
Protocols for delivering the inhibitor and effective dosages are known in the art and/or readily determined empirically by those skilled in the art guided by the selected inhibitor and the present disclosure. […] For example, the well-characterized structural interaction between aminothiol inhibitors of aminopeptidases (e.g. Bienvenue et al., J Inorgan Biochem 2000, 78, 43-54) were exploited to select ERAAP selective aminothiol-type inhibitors. In this manner, we screened panels of compounds and identified a number of ERAAP-selective aminothiol inhibitors, including leucine thiol and lysinethiol. ERAAP modulation assays may be performed by any convenient protocol, including those described by us in Serwold et al. (2001, supra), those of Hattori et al. (2000, supra), etc. […] Alternative aminopeptidase inhibitor pharmacophores for ERAAP selectivity and method compatibility screens include L-bis (1-thio-2-amino-4-methylpentane) dihydrochloride (TAMP) and L-bis (1-thio-2-amino-3-phenylpropane) dihydrochloride (TAPP) (see, e.g. Weiss et al., Res Comm Chem Path Pharmacol 1988, 62, 113-2) and alpha-thiolbestatins (e.g. Ocain et al., J Med Chem 1988 November;31(11):2193-9).

[1] = molecular target: T1, predominant aminopeptidase activity present in the ER (ERAAP) (Mus musculus, UniProt Q9EQH2); assay: Aminopeptidase activity of solubilized microsomes, colorimetric substrate leucine-p-nitroanilide; format: biochemical, mice; conditions: ion exchange chromatography of solubilized microsomes from mouse liver and spleen
T1 construct: Microsomes from liver and spleens of mice were solubilized in detergent; from tissue; host or cells: mouse liver and spleen microsomes
T1 sequence (Q9EQH2 1-930): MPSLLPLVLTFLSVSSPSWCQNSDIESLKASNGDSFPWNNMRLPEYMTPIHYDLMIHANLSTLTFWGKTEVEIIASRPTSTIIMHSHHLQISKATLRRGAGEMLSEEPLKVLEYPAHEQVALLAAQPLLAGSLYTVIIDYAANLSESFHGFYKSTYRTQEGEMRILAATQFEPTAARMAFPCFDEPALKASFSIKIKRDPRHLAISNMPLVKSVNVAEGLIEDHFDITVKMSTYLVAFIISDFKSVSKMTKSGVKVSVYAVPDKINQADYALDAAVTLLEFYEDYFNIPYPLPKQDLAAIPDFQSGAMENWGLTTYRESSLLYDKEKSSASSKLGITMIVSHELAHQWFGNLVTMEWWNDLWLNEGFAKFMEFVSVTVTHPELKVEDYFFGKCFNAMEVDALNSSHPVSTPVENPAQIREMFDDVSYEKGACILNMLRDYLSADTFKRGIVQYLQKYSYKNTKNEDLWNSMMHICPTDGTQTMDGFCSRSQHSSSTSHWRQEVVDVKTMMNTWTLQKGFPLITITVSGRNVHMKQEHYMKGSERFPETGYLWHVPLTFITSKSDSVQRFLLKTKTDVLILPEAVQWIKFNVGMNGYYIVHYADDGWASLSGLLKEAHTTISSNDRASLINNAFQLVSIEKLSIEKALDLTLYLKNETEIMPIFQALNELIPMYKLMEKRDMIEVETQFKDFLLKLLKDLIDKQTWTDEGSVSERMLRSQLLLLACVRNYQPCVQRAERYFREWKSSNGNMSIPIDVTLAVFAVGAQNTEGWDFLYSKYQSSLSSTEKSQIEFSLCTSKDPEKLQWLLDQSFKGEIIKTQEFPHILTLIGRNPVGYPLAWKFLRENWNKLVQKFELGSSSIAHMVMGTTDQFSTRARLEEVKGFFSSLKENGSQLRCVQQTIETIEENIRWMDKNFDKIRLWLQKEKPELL
Text: To identify this protease, we biochemically purified the predominant aminopeptidase activity present in the ER. Microsomes from liver and spleens of mice were solubilized in detergent and the aminopeptidase activity was monitored by the colorimetric substrate leucine-p-nitroanilide (9). […] This activity was precipitated from solubilized microsomes by ammonium sulfate, resolublized and fractionated by size exclusion, ion exchange and hydrophobic interaction chromatographies. The highly enriched fractions from the final purification step contained a major band of approximately 100 kD on a coommassie blue stained SDS-PAGE gel. This band was subjected to in-gel trypsin digestion and the peptides were analyzed by MALDI-TOF mass spectrometry; the resulting tryptic peptide fingerprint was used to search the NCBI database (10). In two independent experiments 25 masses matched the predicted output of trypsin digested murine adipocyte-derived leucine aminopeptidase (Genbank Accession # AF227511). This assignment was further confirmed with the amino acid sequences of four peptides determined by high energy CID MS-MS analysis (11). This 930 amino acid murine aminopeptidase and its human and rat homologues are known by a variety of different names (12). […]

Sprague-Dawley rats = assay: Phenotypic and functional indicia of immunosuppression in treated rats; format: in vivo
[2] = system: antigen presenting cells (APC); assay: APC assays with peripheral blood leukocytes from aminothiol-treated rats; format: in vivo, Sprague-Dawley rats; conditions: peripheral blood leukocytes of treated rats as APC for T cells specific for K^b or D^b presented peptides
ERAAP = ERAAP expression in cultured fibroblasts treated with interferon gamma; format: cell-based
Experimental: MHC I molecules are expressed by virtually all tissues. To determine whether ERAAP expression correlated with that of MHC I, seven different mouse tissues were analyzed by western blot for expression of ERAAP, MHC I and the housekeeping proteins actin and gp96 as controls. ERAAP was detected in all tissues analyzed but its expression was highest in the liver, lung, spleen and thymus, the same tissues which also expressed the highest levels of MHC I molecules. Furthermore, the expression of ERAAP was increased approximately 10-fold by treatment of cultured fibroblasts with the inflammatory cytokine interferon gamma, which also upregulates many other key components in the antigen processing pathway (17).

human source ERAAP, sequence (Q9NZ08 whole entry): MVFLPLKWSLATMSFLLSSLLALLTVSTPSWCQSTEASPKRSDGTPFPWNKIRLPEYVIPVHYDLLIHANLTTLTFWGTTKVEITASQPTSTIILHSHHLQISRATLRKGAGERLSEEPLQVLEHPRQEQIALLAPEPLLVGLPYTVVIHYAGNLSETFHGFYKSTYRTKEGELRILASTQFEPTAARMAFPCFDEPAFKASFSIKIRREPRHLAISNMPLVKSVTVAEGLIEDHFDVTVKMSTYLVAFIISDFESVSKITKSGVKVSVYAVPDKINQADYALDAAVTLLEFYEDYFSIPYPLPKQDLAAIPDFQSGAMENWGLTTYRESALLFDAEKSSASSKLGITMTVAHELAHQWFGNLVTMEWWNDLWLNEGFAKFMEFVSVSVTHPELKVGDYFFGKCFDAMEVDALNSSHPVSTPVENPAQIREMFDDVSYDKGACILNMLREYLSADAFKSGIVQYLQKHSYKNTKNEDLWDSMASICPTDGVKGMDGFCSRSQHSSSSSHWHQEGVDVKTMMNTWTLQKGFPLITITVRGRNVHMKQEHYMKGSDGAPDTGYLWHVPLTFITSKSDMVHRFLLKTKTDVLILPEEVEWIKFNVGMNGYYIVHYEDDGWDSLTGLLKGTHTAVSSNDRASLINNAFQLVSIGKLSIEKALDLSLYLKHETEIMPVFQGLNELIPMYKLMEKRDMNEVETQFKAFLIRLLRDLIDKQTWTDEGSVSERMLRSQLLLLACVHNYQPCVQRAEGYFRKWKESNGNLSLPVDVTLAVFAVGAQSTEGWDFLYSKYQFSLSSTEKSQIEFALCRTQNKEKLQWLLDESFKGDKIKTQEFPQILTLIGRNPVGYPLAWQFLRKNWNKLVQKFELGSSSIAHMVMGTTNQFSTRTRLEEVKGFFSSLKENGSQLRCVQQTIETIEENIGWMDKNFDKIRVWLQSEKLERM

- ERAAP selectivity (human source ERAAP): ERAAP-selective
Compound: CC[C@H](C)[C@H](N)CS [isoleucinethiol]

Compound: CC(C)C[C@H](N)CS [leucinethiol]
- ERAAP selectivity (human source ERAAP): ERAAP-selective
- predominant aminopeptidase activity peak [1]: blocked
- spleen and thymus volume (Sprague-Dawley rats): reduced
- graft-host response (Sprague-Dawley rats; e.g. skin graft assays): reduced
- APC function [2]: pronounced inhibition

- ERAAP selectivity (human source ERAAP): ERAAP-selective
Compound: NCCCC[C@H](N)CS [lysinethiol]

Compound: interferon gamma: inflammatory cytokine
- increase of ERAAP expression (ERAAP): approximately 10 fold
